Measurements: US7199152B2, “TNF-α production inhibitor comprising kavalactone as an active ingredient” (Meiji Dairies Corporation, priority 2000, dated 2007)

Tests used:
[1] = tested on: TNF-α production in BALB/3T3 cells stimulated by okadaic acid; experiment: Inhibition of TNF-α production (in vitro) in BALB/3T3 cells stimulated by okadaic acid, ELISA; type: cell-based; details: for TNF-α production relative to the TNF-α production of the control: okadaic acid 0.2 μM, 24 hours, control = 100%; for TNF-α production inhibitory effect, overall assessment (in words): BALB/3T3 cells, okadaic acid stimulation
Method: In response to stimulation by okadaic acid (9,10-deepithio-9,10-didehydroacanthifolicin), BALB/3T3 cells produce TNF-α. The compounds of the present invention were investigated in terms of inhibitory effect on TNF-α production.
An MEM medium (product of Nissui) containing 10% fetal calf serum (product of Biocell Laboratory) was injected into 12-well multiplates (product of Corning), and BALB/3T3 cells were disseminated at 2×10^5 cells/well. The cells were cultured in a carbon dioxide gas incubator (5% Co2, humidified, 37° C.). Subsequently, KAVA-1, KAVA-2, KAVA-3, KAVA-4, or KAVA-5 was added to the wells at a concentration shown in FIG. 1, and the cells were cultured for one hour. No KAVA compound was added to the control wells. After completion of culturing, okadaic acid (carcinogenisis promoter isolated from Halichondria okadai) was added to each well at a final concentration of 0.2 μM, and culturing was performed for 24 hours. After completion of this culturing, the TNF-α concentration of the supernatant of each well was measured by means of ELISA system (product of Genzyme). In FIG. 1, the amount of TNF-α release corresponding to each compound concentration is represented by a percent concentration based on the amount of TNF-α release measured for the control (100%).

[2] = tested on: TNF-α production in serum induced by LPS; experiment: TNF-α inhibitory effect (in vivo), LPS-induced serum TNF-α in mice, ELISA; design: species or system BALB/c mice; details: 40 mg/kg intraperitoneally, LPS 50 μg/mouse i.p. immediately after, serum 90 minutes after LPS
Method: Male BALB/cAnNCrj mice of 6 weeks age were purchased from Japan Charles River, and those having body weights of 30 g or lower were tested.
Seven mice groups, each group consisting of six mice, were provided; i.e., 1) a group to which distilled water for injection was administered (non-treated group) (N); 2) a group to which a 0.3% carboxymethyl cellulose-Na (0.3% CMC-Na) suspension was administered (control group) (C); and 3) five groups to which KAVA-1, KAVA-2, KAVA-3, KAVA-4, and KAVA-5, respectively, were administered (0.3% CMC-Na was used as a solvent).
Each of KAVA-1, KAVA-2, KAVA-3, KAVA-4, and KAVA-5 was prepared to a drug liquid of 40 mg/10 ml. The liquid was intraperitoneally administered at 10 ml/kg (dose: 40 mg/kg), and 0.3% CMC-Na was intraperitoneally administered at 10 ml/kg to each corresponding group. Lipo-polysaccharide (LPS) (product of SIGMA) was dissolved in physiological saline, and the solution was intraperitoneally administered to each mouse in an amount of 0.2 ml (50 μg/mouse) immediately after administration of the drug liquid.
After 90 minutes from administration of LPS, blood was collected from the eye socket, and the collected sample was allowed to stand for one hour at room temperature. Subsequently, the sample was centrifuged at 11,000 rpm for five minutes, and the serum was collected. […]

Row | Structure (SMILES) | TNF-α production relative to the TNF-α production of the control ([1]; 100 μM compound) | inhibition of serum TNF-α production compared with the control group (C) (in words) [2] | TNF-α production inhibitory effect, overall assessment (in words) [1] | TNF-α production relative to the TNF-α production of the control ([1]; 10 μM compound) | TNF-α production relative to the TNF-α production of the control ([1]; 50 μM compound) | inhibitory effect on TNF-α production (in words) ([1]; concentrations of 50 μM or less)
1 | COC1=CC(=O)O[C@@H](/C=C/c2ccc3c(c2)OCO3)C1 [KAVA-1, (+)-Methysticin] | approximately 39% | almost comparable to that exerted by KAVA-2 | – | – | – | –
2 | COc1ccc(/C=C/c2cc(OC)cc(=O)o2)cc1 [KAVA-2, Yangonin] | approximately 22% | – | strong TNF-A production inhibitory effect | – | – | –
3 | COc1cc(/C=C/c2ccccc2)oc(=O)c1 [KAVA-3, Desmethoxyyangonin] | approximately 0% | – | strong TNF-A production inhibitory effect | approximately 60% | approximately 22% | –
4 | COC1=CC(=O)O[C@@H](CCc2ccccc2)C1 [KAVA-4, (+)-Dihydrokavain] | approximately 60% | significantly (p<0.5) inhibited TNF-α production | – | – | – | no inhibitory effect
5 | COC1=CC(=O)O[C@@H](/C=C/c2ccccc2)C1 [KAVA-5, (+)-Kavain] | approximately 39% | – | – | – | – | –
